Measurements reported in US4912116A, “Propiophenone derivatives for treatment of pollakiuria (frequency urination)” (Hokuriku Pharmaceutical Co., Ltd., priority 1986, dated 1990).

Tested on: cystometrogram (time to micturition)
Experiment: Effect on the cystometrogram (pollakiuria model rats induced by hypogastric nerve transection)
Assay type: in vivo, Male Wister rats
Conditions: i.v., mean ± S.E., saline -6.0 ± 31.8
Experimental: statistical analysis: Each data of Experiment 1-6 represents the mean±S.E. statistical analysis of the data was performed using student's t-test.
Male Wister rats weighing 300 g were incised midline of the abdomen, and bilateral hypogastric nerves were transected.
Two days after hypogastric nerve transection, the rats were anesthetized with urethane (500 mg/kg, i.p.) and alpha-chloralose (50 mg/kg, i.p.) and fixed on their back.
Then, through a midline incision of the abdomen, the urinary bladder was exposed, provided with a small incision, a polyethylene tube inserted, and ureters were cut.
Through the polyethylene tube, saline was infused using a continuous infusion pump. On the other hand, the polyethylene tube was connected to a pressure transducer. Intravesical pressure was recorded on a recorder.
The drug was administrated through a cannula inserted into the left jugular vein at 30 sec before saline infusion.
Effect of drug was represented as delayed time to micturition.

CCc1ccc(C(=O)C(C)CN2CCCC2)cc1 (stereo not drawn) [Compound 1]
Delayed time of micturition (1 mg/kg, 5 rats): 91.8 ± 47.4 s
Delayed time of micturition (4 mg/kg, 5 rats): 179.4 ± 111.0 s
Delayed time of micturition (8 mg/kg, 6 rats, ** P < 0.01 vs control): 449.4 ± 65.4 s
